EP2823816A1, “Inhibitors of Neuropilin and use thereof for the treatment of Neuropilin-related diseases” (Tragex Pharma, priority 2013, dated 2015)

What was measured:
[1] = tested on: HUVEC cells; experiment: Adhesion test (crystal violet); assay type: cell-based; conditions: in vitro, Figure 1A
Description: After observation of cells under the microscope, old media were removed and the adherent cells washed gently twice with PBS (Phosphate Buffer Saline, -Ca^2+, -Mg^2+, Lonza cat n°: 17-512F/12). All cells were detached with 3 ml of trypsin/EDTA (chelator of calcium and magnesium ions) (Lonza), incubated for 5 min at 37°C, and examined using a microscope to ensure that the cells were detached and floating. Then, 3 ml TNS (Trypsin Neutralizing Solution, Lonza, France, cat n° CC-5002) or of culture medium were added to inactivate the trypsin, and the cell suspension was transferred in a falcon tube and centrifuged for 7 min at 1400 rpm. The supernatant was removed and the cell pellet resuspended in […] of culture medium. 50 µL of this solution were transferred in 20 µL of isotonic solution and the cells were counted by count cellular (Beckman Coulter). […]
After an incubation period of 72 h, the adherent cells were fixed with […] paraformaldehyde 3% for 15 min at room temperature. […] The microplate was stirred to obtain a homogenous solution and absorbance was quantified at 580 nm by Microplate Manager 5.2. The percentage of inhibition was calculated as follow: % inhibition = 100-[(DOsample/DOcontrol)*100]. […]

[2] = tested on: HUVEC cells; experiment: Tube formation assay; assay type: cell-based; conditions: HUVEC on collagen, VEGF-A165-stimulation, Figure 2
Description: Collagen type I (1 mg/ml, BD) was mixed with 0.1N NaOH, 0.1% bicarbonate and 10X in medium EBM-2 and kept on ice until placed into the wells. The assay was prepared in 96-well plate format and the bottom layer of collagen was formed by adding 70 µL of the solution per well and allowing subsequent gelation at 37°C for 30 min. The HUVEC cells were then seeded on collagen at […] cells per well. After monolayer formation (one day), a second layer of collagen 200 µL per well was prepared according to the same protocol and gently placed on top of the cell layer. The compounds of the invention were added to the cells at the adhesion step (concentration corresponding to the Inhibitory Concentration 50 (IC50)). After 24 and 48 h of incubation at 37°C, tube formation was observed and pictures were taken.

[3] = tested on: SH-SY5Y; experiment: WST-1 proliferation / cytotoxic test; assay type: cell-based; conditions: Homo sapiens, Brain, wst-1 cytotoxic test, 72 h
Description: (§1) After observation of cells under the microscope, old media were removed and the adherent cells washed gently twice with PBS (Phosphate Buffer Saline, -Ca^2+, -Mg^2+, Lonza cat n°: 17-512F/12). All cells were detached with 3 ml of trypsin/EDTA (chelator of calcium and magnesium ions) (Lonza), incubated for 5 min at 37°C, and examined using a microscope to ensure that the cells were detached and floating. Then, 3 ml TNS (Trypsin Neutralizing Solution, Lonza, France, cat n° CC-5002) or of culture medium were added to inactivate the trypsin, and the cell suspension was transferred in a falcon tube and centrifuged for 7 min at 1400 rpm. The supernatant was removed and the cell pellet resuspended in […] of culture medium. 50 µL of this solution were transferred in 20 µL of isotonic solution and the cells were counted by count cellular (Beckman Coulter). At day 0, 200 µL of cellular suspension (3.10^3 cells/well for the HUVEC cells, breast cancer cells (MDA-MB-231 1.10^4 cells/well, MDA-MB-468 2.10^4 cells/well,); cervical cancer cells (HeLa 5.000 cells/well); colon cancer cells (HCT-116 5.10^3 cells/well, HCT-29 1.1.10^4 cells/well); pancreas cancer cells (Panc-10.5 1.5.10^4 cells/well); brain cancer cells (U87 5.10^3 cells/well, SH-SYSY 8.10^4 cells/well); Lung cancer cells (A 549 1.10^4 cells/well, NCI-H460 1.10^4 cells/well); fibrosarcoma cells (HT 1080 8.10^3 cells/well); Burkitt's lymphoma cells (DAUDI 3.10^4 cells/well); acute lymphoblastic leukemia cells (CEM 3.10^4 cells/well); chronic myeloid leukemia cells (ERY 5.10^4 cells/well); mantle cell lymphoma (GRANTA 1.10^5 cells/well); B lymphoma cells (VAL 1.10^5 cells/well)) were then plated on 96 well plates and incubated at 37°C in a humidified atmosphere of 5% CO2 for 24 h.
(§2) At day 1, the compound 1 of the invention was added at increasing concentrations (0.1 - 10 µM) in the wells and plates were incubated at 37°C in a humidified atmosphere of 5% CO2 for 72 h.
(§3) The cell proliferation WST-1 assay is a colorimetric assay for the quantification of cell proliferation and viability, based on the enzymatic cleavage of the tetrazolium salt WST-1 added to the culture medium, to a water soluble colored formazan dye, detected by absorbance at 450 nm, by mitochondrial succinate-tetrazoliumreductase in viable cells. An augmentation in enzyme activity will then lead to an increase in the amount of formazan dye formed, which directly correlates to the number of metabolically active cells in the culture.
(§4) After an incubation period of 72 h, at day 4, were prepared the 19 mL medium with reagent WST-1 1mL ([…]). The medium was removed from the 96 microplate and 200 µL of solution WST-1/medium were added for each well. The cells were incubated at 37°C in a humidified atmosphere of 5% CO2 for 1h30 and the absorbance at 450-655 nm was measured by Microplate Manager 5.2 (Bio-Rad).

[4] = tested on: HeLa; experiment: WST-1 proliferation / cytotoxic test; assay type: cell-based; conditions: Homo sapiens, Cervical, wst-1 cytotoxic test, 72 h
Description: as §1, §2, §3, §4

[5] = tested on: Granta-519; experiment: WST-1 proliferation / cytotoxic test; assay type: cell-based; conditions: Homo sapiens, Mantle cell lymphoma, wst-1 cytotoxic test, 72 h
Description: as §1, §2, §3, §4

[6] = tested on: HT-1080; experiment: WST-1 proliferation / cytotoxic test; assay type: cell-based; conditions: Homo sapiens, Fibrosarcoma, wst-1 cytotoxic test, 72 h
Description: as §1, §2, §3, §4

[7] = tested on: A549; experiment: WST-1 proliferation / cytotoxic test; assay type: cell-based; conditions: Homo sapiens, Lung, wst-1 cytotoxic test, 72 h
Description: as §1, §2, §3, §4

[8] = tested on: Panc-10.5; experiment: WST-1 proliferation / cytotoxic test; assay type: cell-based; conditions: Homo sapiens, Pancreas, wst-1 cytotoxic test, 72 h
Description: as §1, §2, §3, §4

[9] = tested on: MDA-MB-231 cancer cells; experiment: Motility assay (videomicroscopy); assay type: cell-based, human; conditions: MDA-MB-231, 24 h, at the IC50 of the proliferation assay, Figure 4
Description: Endothelial cells (HUVEC) and breast cancer cells (MDA-MB-231) were seeded in 35 mm diameter tissue culture dishes at 3×10^4 and 6×10^4 cells per dish respectively and treated separately with DMSO (control) and compound 1 of the invention (treatment) for 24 h, at the concentration of IC50 obtained with the proliferation assay.
The dishes were placed in an enclosed warming incubator on the motorized stage of a computer-controlled Eclipse Ti inverted microscope (Nikon Instruments Europe) equipped with a CCD Cool- SNAP HQ2 camera (Roper Scientific, USA) and a PC workstation. The incubator allowed samples to be kept at 37°C in a humidified atmosphere containing 5% CO2, 95% air. Phase images were recorded at 100× every 5 min simultaneously over several fields from 0 till 24 h (288 frames). Cell motility was tracked and analyzed for at least 25 cells in each field over three independent experiments. The total distance of migration and the speed of migration were analyzed. The degree of persistence of movement was defined as the ratio between the linear distance and the total distance covered by the cells. Image acquisition and analyses were carried out using Metamorph7 software (Universal Imaging).

## CCOc1ccccc1NC(=O)c1ccc(C)c(S(=O)(=O)Nc2ccc(C)cc2)c1 [Compound 1, N-(2-ethoxyphenyl)-4-methyl-3-(N-(p-tolyl)sulfamoyl)benzamide]
[1]
  adhesion of HUVEC cells: inhibited
[2]
  formation of new blood vessels (tube formation): effectively inhibits the formation of new blood vessels
[3]
  IC50: 100 ± 20 nM
[4]
  IC50: 200 ± 60 nM
[5]
  IC50: 500 ± 70 nM
[6]
  IC50: 300 ± 10 nM
[7]
  IC50: 400 ± 30 nM
[8]
  IC50: 500 ± 40 nM
[9]
  motility of cancer cells (migration speed): significant anti-migratory effect
